Assay results from patent US9649297B2, “Treatment of ADHD” (Gosforth Centre (Holdings) Pty Ltd., priority 2007, dated 2017).
Where a name gives a salt, the structure may show the parent alone.

Experiments:
[1] = system: epileptics and individuals with bipolar disorders; conditions: per day; usual minimum anti-convulsant dose; cited from earlier work
[2] = system: patients who had symptoms of ADHD; test: Clinical study with anti-epileptic mood stabilisers alone in patients with symptoms of ADHD (Example 3); format: in vivo, human; conditions: for patient-reported improvements (self and other rating scales, clinical assessments): monotherapy without stimulant, topiramate 12.5-50 mg/day, Phenytoin 30-60 mg/day, valproate same dose range as combined treatment
Description: The improvements assessed using self and other rating scales objective psychometric tool together with repeated clinical assessments.

ADHD patients = system: ADHD patients
Description: A. Topiramate in Combination with Dexamphetamine (n=11)
The third trial clinical has been with phenytoin and a psychostimulant (n=8). Phenytoin is less often used for its psychoactive properties than either valproate or topiramate. […] The assessment methods were as per the trials with valproate and topiramate.
C. Phenytoin in Combination with Dexamphetamine (n=6)
E. Sodium Valproate in Combination with Methylphenidate (n=4) • Sodium Valproate: average 1.6 mg/kg/day (130 mg/day) • Methylphenidate: average 1.2 mg/kg/day (84 mg/day)

[3] = system: patients with a diagnosis of GAD; test: Treatment of Generalised Anxiety Disorder (GAD) with low dose AED (Example 5); format: in vivo, human; conditions: 50 to 150 mg, without co-administration of a stimulant
Description: The diagnostic criteria cited for inclusion in this study included reference to excessive anxiety and worry which had been present for at least 6 months and which was difficult to control and associated with difficulty concentrating, becoming easily fatigued, restlessness or feeling keyed up or on edge and sleep disturbance. […] The medication was well tolerated with few side effects at the dose given. The improvement was evaluated using self and observer rating scales together with clinician review. As in the ADHD trials response usually commenced within 3-7 days. Due to the robust and persistent benefit, six months at the time of writing, many of the other psychotropic medications were reduced or even ceased.

adults with ADHD = system: adults with ADHD
Description: The initial dosages used were from 15 to 70 mg/day of dexamphetamine and from 100 to 700 mg/day of VPA (Epilim) (=approximately 2 to 10 mg/kg/day).
The determination of the dose for the dexamphetamine was undertaken in a clinical sensitive open label manner. The dose was titrated upwards dependent on the clinical response and the freedom from side-effects. The dose range was between 15 and 70 mg a day. The frequency of the dosing also varied dependent upon the clinical response. The usual dose interval was between two to four hours. This dosing adjustment took place prior to the commencement of the sodium valproate. The sodium valproate medication was initiated once a day at 50 mg tablet or elixir and titrated upwards dependent on response, but not more than one increase every three days. The dose was given as a once or twice a day regime. During the titration phase, if clinically possible, no other adjustments to the pharmacotherapy were undertaken.
The dosages of sodium valproate, after adjustment, varied between 50 mg/day, 100 mg/day, 150 mg/day or 200 mg/day (number of patients—120), with the majority of patients receiving between 50 to 150 mg/day with […] usually the maximum.
The results were assessed using the Conners Adult ADHD Rating scales completed by the patient and observer (usually partner or parent). In a sample of 26 patients who completed self CAARS rating scales at; pre treatment, stable on stimulant and stable on anti-epileptic drug (AED).

[4] = low dose sodium valproate with dexamphetamine

Structure (SMILES)	Minimum Dose/day effective for mood stabilisation [1]	also measured
CCC1(c2ccccc2)C(=O)NC(=O)NC1=O.CNC(C)CC1CCCCC1 [Barbexaclone]	200 mg in divided doses	–
NC(=O)N1c2ccccc2C=Cc2ccccc21 [Carbamazepine, (Z)-5H-dibenzo[b,f]azepine-5-carboxamide]	400 mg	–
CN1C(=O)CC(=O)N(c2ccccc2)c2cc(Cl)ccc21 [Clobazam]	5 mg/kg daily	–
O=C1CN=C(c2ccccc2Cl)c2cc([N+](=O)[O-])ccc2N1 [Clonazepam]	1 mg	–
CCN1C(=O)OC(C)(C)C1=O [Ethadione]	1000 mg	–
CCC1(C)CC(=O)NC1=O (centres unmarked) [Ethosuximide]	1000 mg	–
CCN1C(=O)NC(c2ccccc2)C1=O (centres unmarked) [Ethotoin, 3-ethyl-5-phenyl-imidazolidine-2,4-dione]	1000 mg	–
NC(=O)OCC(COC(N)=O)c1ccccc1 [Felbamate]	1200 mg	–
O=C1NC(c2ccccc2)(c2ccccc2)C(=O)N1COP(=O)(O)O [Fosphenytoin Sodium]	10 mg/kg	–
NCC1(CC(=O)O)CCCCC1 [Gabapentin, 2-[1-(aminomethyl)cyclohexyl]acetic acid]	900 mg	–
Nc1nnc(-c2cccc(Cl)c2Cl)c(N)n1 [Lamotrigine]	100 mg	–
CC[C@@H](C(N)=O)N1CCCC1=O [Levetiracetam]	1000 mg	–
COC1=CC(=O)OC1C(O)c1ccccc1Cl (centres unmarked) [Losigamone]	1500 mg	–
CCC1(c2ccccc2)NC(=O)N(C)C1=O (centres unmarked) [Mephenytoin]	200 mg	–
NC(=O)N1c2ccccc2CC(=O)c2ccccc21 [Oxcarbazepine, 10,11-Dihydro-10-oxo-5H-dibenz[b,f]azepine-5-carboxamide]	600 mg	–
CCC(C(=O)NC(N)=O)c1ccccc1 (centres unmarked) [Pheneturide]	600 mg	–
O=C1NC(=O)C(c2ccccc2)(c2ccccc2)N1 [Phenytoin, 5,5-diphenylimidazolidine-2,4-dione]	200 mg	patient-reported improvements (self and other rating scales, clinical assessments) [2]: improvements in the organisation of thoughts in conversation and reading comprehension; overall effect and tolerability (ADHD patients; phenytoin at low dose with a psychostimulant, n=8): robust and well tolerated effect in eight patients
CC(C)C[C@H](CN)CC(=O)O [Pregabalin, (S)-3-(aminomethyl)-5-methylhexanoic acid]	300 mg	–
CCC1(c2ccccc2)C(=O)NCNC1=O [Primidone]	750 mg	–
NC(=O)c1cn(Cc2c(F)cccc2F)nn1 [Rufinamide]	400 mg	–
NS(=O)(=O)c1ccc(N2CCCCS2(=O)=O)cc1 [Sultiame]	200 mg	–
Cc1ccsc1C(=CCCN1CCC[C@H](C(=O)O)C1)c1sccc1C [Tiagabine Hydrochloride, (3S)-1-[4,4-bis(3-methylthiophen-2-yl)but-3-enyl]piperidine-3-carboxylic acid]	30 mg	–
CC1(C)O[C@@H]2[C@@H](CO[C@@]3(COS(N)(=O)=O)OC(C)(C)O[C@@H]23)O1 [Topiramate, 2,3:4,5-Bis-O-(1-methylethylidene)-beta-D-fructopyranose sulfamate]	100 mg	patient-reported improvements (self and other rating scales, clinical assessments) [2]: improvements in the organisation of thoughts in conversation and reading comprehension; effect on coordination, organisation and motivation ([2]; topiramate alone 12.5-50 mg/day): effect on coordination, as well as improved organisation and motivation; tolerability at initial titration (ADHD patients; 25 mg increasing to 125 mg daily, with stimulant): intolerable side effects and ceasing of medication; Conners' Adult ADHD Rating scales (self and observer), DEM, clinician interview (ADHD patients; re-titration commencing at 6.25 or 12.5 mg, with stimulant): significant improvements
C=CC(N)CCC(=O)O (centres unmarked) [Vigabatrin]	1000 mg	–
NS(=O)(=O)Cc1noc2ccccc12 [Zonisamide]	200 mg	–
CCCC(CCC)C(=O)O.[Na] [sodium valproate, sodium di-n-propylacetic acid]	–	patient-reported improvements (self and other rating scales, clinical assessments) [2]: improvements in the organisation of thoughts in conversation and reading comprehension; function and symptoms in Generalised Anxiety Disorder [3]: sustained improvement in function and a reduction in symptoms; psychosocial functioning (patient description, clinical review) (adults with ADHD; VPA added to dexamphetamine, dose below that for bipolar disorder): overall improvement in psychosocial functioning; adverse effect at higher dosages (adults with ADHD; in vivo): general cognitive and a resultant loss of efficacy; adverse effect at higher doses (adults with ADHD; in vivo): general cognitive slowing and the resultant loss of efficacy; oculomotor function, Developmental Eye Movement Test (DEM) (adults with ADHD; [4]): has shown improvement; reading and verbal comprehension abilities (patient report) (adults with ADHD; [4]): improvement in their reading and verbal comprehension abilities
